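96-well plates; 48 h exposure; 5 concentrations. Endpoints by linear interpolation between flanking doses. Not reached: highest tested concentration assigned. The concentration for full growth arrest is given as TGI.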
Legend:
Test in all cases: NCI tumour cell line growth inhibition, 48 h
[1] = tested on: SK-MEL-5 melanoma
[2] = tested on: HCT-15 colon
[3] = tested on: TK-10 renal
[4] = tested on: MDA-MB-435
[5] = tested on: SF-539 CNS
[6] = tested on: UO-31 renal
[7] = tested on: A498 renal
[8] = tested on: 786-0 renal
[9] = tested on: M14 melanoma
[10] = tested on: OVCAR-4 ovarian
[11] = tested on: SK-MEL-2 melanoma
[12] = tested on: UACC-257 melanoma
[13] = tested on: SR leukemia
[14] = tested on: T-47D breast
[15] = tested on: MDA-MB-231 breast
[16] = tested on: MOLT-4 leukemia
[17] = tested on: CCRF-CEM leukemia
[18] = tested on: UACC-62 melanoma
[19] = tested on: NCI-H522 lung
[20] = tested on: NCI/ADR-RES ovarian
[21] = tested on: KM12 colon
[22] = tested on: PC-3 prostate
[23] = tested on: HCT-116 colon
[24] = tested on: COLO 205 colon
[25] = tested on: HOP-92 NSCLC
[26] = tested on: SF-295 CNS
[27] = tested on: HS 578T breast
[28] = tested on: HT29 colon
[29] = tested on: U251 CNS
[30] = tested on: NCI-H226 lung
[31] = tested on: SN12C renal
[32] = tested on: NCI-H460 lung
[33] = tested on: OVCAR-8 ovarian
[34] = tested on: HCC-2998 colon
[35] = tested on: K-562 leukemia
[36] = tested on: SW-620 colon
[37] = tested on: NCI-H23 lung
[38] = tested on: OVCAR-3 ovarian
[39] = tested on: RPMI-8226 leukemia
[40] = tested on: ACHN renal
[41] = tested on: EKVX NSCLC
[42] = tested on: BT-549 breast
[43] = tested on: SNB-19 CNS
[44] = tested on: A549 NSCLC
[45] = tested on: MDA-N
[46] = tested on: CAKI-1 renal
[47] = tested on: IGROV1 ovarian
[48] = tested on: SK-OV-3 ovarian
[49] = tested on: HOP-62 NSCLC
[50] = tested on: OVCAR-5 ovarian
[51] = tested on: HL-60(TB) leukemia
[52] = tested on: SK-MEL-28 melanoma
[53] = tested on: SNB-75 CNS
[54] = tested on: DU-145 prostate
[55] = tested on: MALME-3M melanoma
[56] = tested on: LOX IMVI melanoma
[57] = tested on: MCF7 breast
[58] = tested on: SF-268 CNS
[59] = tested on: RXF 393 renal

Measured: TGI

CCOC(=O)c1cccc([N+](=O)[O-])c1N
not listed: [58] | [59]
> 100 µM: all other assays above

CN(C)C=Nc1cccc2cnccc12
not listed: [21] | [32] | [34] | [36]
> 100 µM: all other assays above

Source: PubChem BioAssay (NCI)
